These results are taken from US20150133388A1, “ACETYLATED CRYSTALLIN POLYPEPTIDES AND MIMETICS THEREOF AS THERAPEUTIC AGENTS” (Case Western Reserve University, priority 2012, published 2015).

The test system of experiment [1] is CHO cells. Put plainly: Hyperthermia-induced apoptosis in CHO cells (Hoechst stain). In kind it is cell-based, Chinese hamster. Conditions: for inhibition of apoptosis: untreated rate ~28%. How it is done:
(§1) Human lens epithelial cells (HLE) were isolated from the lens of a donor and cultured in DMEM supplemented with 10% FBS as previously described for mouse lens epithelial cells. Cells between passages 5 and 6 were used for the experiments. Chinese hamster ovary (CHO) cells were cultured in Ham's F12 medium. The α-crystallin peptides were mixed with a cationic lipid, BIOPORTER (BP), according to the manufacturer's instructions (Polyplus transfection reagent, Illkirch, France). When the cultures reached 70-80% confluence, the cells were treated with BP either alone or with the peptides in serumfree medium and incubated for 4 h at 37° C. in a humidified 5% CO2 atmosphere. The cells were then washed with PBS and incubated at 43° C. for 1 h (thermal stress), followed by incubation at 37° C. for 16 h for recovery. The percentage of apoptotic cells was determined by staining the cells with Hoechst. Cells incubated at 37° C. without thermal stress were used as controls.

Experiment [2] deals with Human lens epithelial cells (HLE). The experiment is described as follows: Hyperthermia-induced apoptosis in HLE cells (Hoechst stain). In kind it is cell-based. Conditions: 43° C. 1 h; for rate of apoptosis after peptide pretreatment: 4 μg/ml in BP 4 h, without peptide nearly 40%. The protocol: as §1
In experiment [3] the test system is lens protein aggregation. The experiment is described as follows: Histology (H&E) of lens protein aggregation in selenite cataract. Format: in vivo, rat. Conditions: multiple injections 10 μg. How it is done: (§2) Neonatal Sprague-Dawley rat pups (12 days old) were used for these experiments. The pups in the experimental groups received a single subcutaneous injection of sodium selenite (4 mg/Kg body weight) on day 12. Peptides diluted from a stock in sterile water (dissolved by adding 2 μl of 10 N NaOH to a 1.0 ml stock) were injected intraperitoneally (at 2.5, 5, or 10 μg/animal) 6 h prior to selenite injection (single injection). When multiple injections were performed, one pre-selenite injection was administered, as above, followed by four additional injections on four consecutive days after the sodium selenite injection. One group served as the control (no treatment) and another as the selenite control (no peptide injection). The lenses were examined on day 17 (when the pups had opened their eyes) using a slit lamp microscope (after dilating the pupil through topical application of tropicamide) and photographed. For hematoxylin and eosin (H & E) and TUNEL staining, eyes were fixed immediately after enucleation in a 10% buffered formalin solution overnight.

The subject of experiment [4] is lens epithelial cells. Put plainly: Lens epithelial cell apoptosis in selenite cataract (in situ TUNEL). In kind it is in vivo, rat. Conditions: multiple 10 μg injections. How it is done:
as §2

The subject of experiment [5] is caspase-3. The experiment is described as follows: Caspase-3 activity in thermally stressed CHO cells. In kind it is cell-based, Chinese hamster. Conditions: 4 μg/ml. How it is done: (§3) Cells were lysed in cell lysis buffer (Cell signaling), and lenses were homogenized in 50 mM Tris-buffered saline. Both buffers contained a protease inhibitor cocktail (1:100 dilution). An equal volume of a fluorogenic substrate solution[2× reaction buffer: 10 mM DTT and 50 μM Ac-DEVD-AFC (for caspase-3) or Ac-LEHDAFC (for caspase-9)] was added to each lysate. The lysates were then incubated for 2 h at 37° C. in the dark. The samples were analyzed with a […] spectrofluorometer (HORIBA Scientific, Edison, N.J.) at excitation/emission wavelengths 400/505 nm.

Experiment [6] has as its system selenite-induced cataracts. The experiment is described as follows: Selenite-induced cataract in rat pups (slit lamp). Format: in vivo. How it is done: as §2
For experiment [7], the system named is caspase-9. Put plainly: Caspase-9 activity in thermally stressed CHO cells. Format: cell-based, Chinese hamster. Conditions: 4 μg/ml. The protocol:
as §3

The test system of experiment [8] is insulin (IN). Put plainly: Chaperone assay, client protein insulin. Format: biochemical. The protocol: (§4) Chaperone assays were performed as previously described. The ratios of the peptides: client proteins (w/w) were as follows: citrate synthase, 1:2.5; insulin, 1:10; βL-crystallin, 1:1.5; and γ-crystallin, 1:1. The scrambled αA-crystallin peptide was tested in certain assays at peptide: client protein ratios as follows: citrate synthase, 1:1.25, insulin, 1:5 to determine peptide specificity.

Experiment [9] deals with T1, citrate synthase (CS) (Sus scrofa, UniProt P00889).
T1 construct: purchased Sigma-Aldrich Chemical Co. (St. Louis, Mo.)
T1 sequence (P00889 28-464): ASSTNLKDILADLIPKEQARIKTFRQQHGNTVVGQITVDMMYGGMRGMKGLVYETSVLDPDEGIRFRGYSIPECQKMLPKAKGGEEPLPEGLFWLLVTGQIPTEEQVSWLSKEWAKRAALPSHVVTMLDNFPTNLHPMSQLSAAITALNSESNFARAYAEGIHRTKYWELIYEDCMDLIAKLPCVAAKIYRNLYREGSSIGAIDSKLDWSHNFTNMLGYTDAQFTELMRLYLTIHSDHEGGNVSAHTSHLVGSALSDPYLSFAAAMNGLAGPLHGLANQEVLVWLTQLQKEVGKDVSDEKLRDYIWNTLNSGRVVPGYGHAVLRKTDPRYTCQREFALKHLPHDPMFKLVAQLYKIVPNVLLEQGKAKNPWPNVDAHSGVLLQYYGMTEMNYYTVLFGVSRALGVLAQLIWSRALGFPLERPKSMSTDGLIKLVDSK
Put plainly: Chaperone assay, client protein citrate synthase. In kind it is biochemical. How it is done:
as §4

In experiment [10] the test system is lens epithelial cells. The experiment is described as follows: Calcimycin-induced apoptosis in organ-cultured mouse lenses (TUNEL). Format: cell-based. Conditions: 5 μM calcimycin. How it is done: The animal experiments conformed to the ARVO Statement for the Use of Animals in Ophthalmic and Vision Research and were approved by the CWRU's Animal Care and Use Committee. Lenses were dissected from the eyes of ˜3-month-old C57B1/6 mice and maintained in artificial aqueous humor (AAH) (113 mM NaCl, 4.5 mM KCl, 1 mM MgCl2, 1.5 mM CaCl2, 6 mM D-glucose, 10 mM HEPES, 20 mM NaHCO3, and 1:1,000 penicillin/streptomycin, pH 7.3). Lenses that developed opacification within 24 h were discarded. Native and acetyl αA- and αB crystallin peptides were added to the culture medium at a concentration of 50 μg/3.0 ml, followed by incubation of the lenses for 16 h. The medium was replaced with fresh medium containing 5 μM calcimycin, and the lenses were incubated for an additional 6 h. After this incubation period, the lenses were thoroughly washed with PBS, fixed in 1% buffered formalin overnight, and embedded in paraffin. Microtome sections (5 μm) were subsequently rehydrated and subjected to antigen retrieval via microwave irradiation in 10 mM citrate buffer (pH 6.0). Apoptosis was measured using the In situ Cell Death Detection Kit (Roche, Indianapolis, Ind.) according to the manufacturer's instructions. The sections were counterstained with DAPI to visualize nuclei.

Experiment [11] deals with βL-crystallin (BLC). The experiment is described as follows: Chaperone assay, client protein βL-crystallin. Format: biochemical. Conditions: peptide:βL-crystallin 1:1.5 (w/w). The protocol: as §4
In experiment [12] the test system is γ-crystallin (GC). The experiment is described as follows: Chaperone assay, client protein γ-crystallin. Conditions: peptide:γ-crystallin 1:1 (w/w). In kind it is biochemical. How it is done:
as §4

For experiment [13], the target named is the above four client proteins (citrate synthase, insulin, βL-crystallin, γ-crystallin). The experiment is described as follows: cell-based or functional assay.
[14] abbreviates: 1 μg/ml peptide in BIOPORTER 4 h, 43° C. 1 h.
The mark [15] stands for this setting: 2 μg/ml peptide in BIOPORTER 4 h, 43° C. 1 h.
The mark [16] stands for this setting: 4 μg/ml peptide in BIOPORTER 4 h, 43° C. 1 h.
Setting [17] is: multiple i.p. injections 10 μg/animal.
[18] abbreviates: single i.p. injection 2.5 μg/animal 6 h prior to selenite.
Where [19] appears, read: single i.p. injection 10 μg/animal 6 h prior to selenite.
Where [20] appears, read: multiple i.p. injections 5 μg/animal.

No end group written: not given here.

With “73DRFSVNLDVKHFSPEELKVKV93 (listed as Homo sapiens) [αB-native peptide]”, the figures for the inhibition of apoptosis in experiment [1] (setting [14]), in [1] (setting [15]) and in experiment [1] (setting [16]) were 8%, 12% and 17%, respectively. Also, the “rate of apoptosis after peptide pretreatment” value (“rate of apoptosis” for short) in experiment [2] was determined as 18%. Also, in [3], the “inhibition of protein aggregation in the lens center (H&E)” value (“inhibition of protein aggregation” below) was “inhibited”. In addition, in experiment [4], the “inhibition of lens epithelial cell apoptosis (TUNEL)” value (shortened to “inhibition … (TUNEL)”) is “inhibited apoptosis”. The “inhibition of caspase-3 activity” value in experiment [5] turned out to be 80%. Further, the “inhibition of cataract development” value in experiment [6] (setting [17]) is on record as “inhibited cataract development”; in [6] (setting [18]) it was “ineffective”; in experiment [6] (setting [19]), “strongly inhibited cataract development”. Moreover, the “inhibition of caspase-9 activity” value in experiment [7] was 51%.

Turning to “DFVIDSPFKLVDLEKVHFTK (listed as Homo sapiens) [αA-scrambled peptide]”, the chaperone function result in experiment [8] (peptide:IN 1:5, two times higher concentration than native and acetyl peptides) was “did not function as a chaperone”; in [9] (peptide:CS 1:1.25, two times higher concentration than native and acetyl peptides), “did not function as a chaperone”. The “inhibition of apoptosis (in words)” value is “did not inhibit apoptosis” in [1] (4 μg/ml, 43° C. 1 h) and “did not inhibit apoptosis” in experiment [2] (4 μg/ml). In addition, in [6] (setting [17]), the “inhibition of cataract development” value is given as “entirely ineffective”. Besides, in experiment [10], the “protection from calcimycin-induced apoptosis (in words)” value is reported as “did not protect the cells”.

“69DK (acetyl) FVIFLDVKHFSPEDLTVK88 (DK(Ac)FVIFLDVKHFSPEDLTVK; listed as Homo sapiens) [αA-acetyl peptide]”: the “chaperone function compared with the native peptide” value in [8] (peptide:insulin 1:10 (w/w)) was “significantly better”; in experiment [11] it was “not different”; in experiment [9] (peptide:citrate synthase 1:2.5 (w/w)) it was “significantly better”; in [12], “significantly better”. Further, in [1] (at the 2 and 4 μg concentrations), the “more effective than the native peptide in inhibiting apoptosis” value is “at least 5%”. Further, the “rate of apoptosis” value in experiment [2] was found to be 25%. The “inhibition of protein aggregation” value in experiment [3] is reported as “inhibited”. Further, the “inhibition … (TUNEL)” value in experiment [4] is “inhibited apoptosis”. Further, the “inhibition of caspase-3 activity” value in [5] amounted to 90%. The “inhibition of cataract development” value in experiment [6] (multiple i.p. injections 2.5 μg/animal) is “partially inhibited cataract development”; in experiment [6] (setting [20]), “strongly inhibited cataracts”; in experiment [6] (setting [17]), “entirely inhibited cataracts”; in experiment [6] (setting [18]), “ineffective”; in experiment [6] (single i.p. injection 5 μg/animal 6 h prior to selenite) it was “more effective than the native peptide”; in experiment [6] (setting [19]) it was “more effective than the native peptide”. In addition, the “inhibition of caspase-9 activity” value in experiment [7] was determined as 53%.

For “69DKFVIFLDVKHFSPEDLTVK88 (listed as Homo sapiens) [αA-native peptide]”, the inhibition of apoptosis worked out at 12% in experiment [1] (setting [14]), 14% in [1] (setting [15]) and 17% in [1] (setting [16]). In addition, the “rate of apoptosis” value in [2] worked out at 22%. Further, the “inhibition of protein aggregation” value in experiment [3] is recorded as “inhibited”. Moreover, in [4], the “inhibition … (TUNEL)” value is reported as “inhibited apoptosis”. Further, the “inhibition of caspase-3 activity” value in experiment [5] is on record as 80%. Besides, the “inhibition of cataract development” value is given as “strongly inhibited cataracts” in experiment [6] (setting [20]), “entirely inhibited cataracts” in experiment [6] (setting [17]) and “ineffective” in experiment [6] (setting [18]). The “inhibition of caspase-9 activity” value in experiment [7] turned out to be 51%.

Molecule DRFSVNLDVKHFSPEELKVK(Ac)V [αB-crystallin acetyl peptide 73…(acetyl)V93] returned a chaperone function, against the native αB peptide (percent weaker) in [13] of 10 to 30%.
